Assay results published in patent US20250257134A1, “THERAPEUTIC AND DIAGNOSTIC METHODS FOR BLADDER CANCER” (Genentech, Inc., priority 2022, published 2025).

How the values were obtained:
[1] = system: patients with metastatic urothelial carcinoma (mUC); assay: Post hoc analysis of IMvigor130 biomarker-evaluable population: PD-L1 IHC assays (SP142, 22C3) and OS; assay type: in vivo, human
Description: Clinically relevant biomarkers are needed to predict outcomes with immunotherapy in metastatic urothelial carcinoma (mUC). Different PD-L1 assays use various methods (e.g., scoring tumor and/or immune cells) to evaluate anti-PD-L1/PD-1 outcomes. […] Thus, it was hypothesized that the SP142 and 22C3 assays may be differentially associated with OS in IMvigor130 patients, which may be related to PD-L1 localization on specific immune cells such as dendritic cells (DCs). This Example describes a post hoc analysis that studied associations between two PD-L1 IHC assays (i.e., VENTANA SP142 and Dako 22C3) and OS in the biomarker-evaluable population of the IMvigor130 study.
The biomarker-evaluable population in this analysis consisted of patients with archival tumors in Arms B and C (Jun. 14, 2020 cutoff) (Galsky et al. Cancer Res. 81 (13_Supplement): CT042, 2021). Formalin-fixed paraffin-embedded (FFPE) tumor specimens from eligible IMvigor130 study patients were prospectively tested for PD-L1 IHC expression by a central laboratory prior to randomization (see, Example 1 for additional information). The IHC scores had three categories (IC0, IC1, IC2/3). The study enrolled all eligible patients whose tissue is evaluable for expression testing, regardless of PD-L1 expression status.
PD-L1 expression was evaluated by IHC (CellCarta) using the SP142 (Ventana) and 22C3 (Dako) assays in 322 patients treated with atezolizumab monotherapy (Arm B) and 305 patients treated with placebo+platinum-based chemotherapy (Arm C). Samples were also stained for IC subtypes. Assay cutoffs for the SP142 assay were IC ≥5% (IC2/3) and <5% (IC0/1). For the 22C3 assay, cutoffs were CPS ≥10 and <10.
A subset of tumor samples were also stained by IHC for the dendritic cell marker DC-LAMP (Clone 1010E1.01, Novus Biologicals). In silico deconvolution by xCell (Aran et al. Genome Biol. 18 (1): 220, 2017) was performed. Statistical analysis was performed to compare OS between subgroups using the stratified log-rank test.

[2] = system: patients with untreated locally advanced or metastatic urothelial carcinoma; assay: Phase III IMvigor130 study: overall survival, atezolizumab monotherapy (Arm B) vs placebo + platinum-based chemotherapy (Arm C); assay type: in vivo, human; conditions: 1L mUC, May 31, 2019 cutoff
Description: This Example describes the IMvigor130 study, which is a Phase III, multicenter, randomized, placebo-controlled, partially blind study designed to evaluate the efficacy of atezolizumab given as monotherapy or in combination with platinum-based chemotherapy versus placebo in combination with platinum-based chemotherapy in patients with locally advanced or metastatic urothelial carcinoma who have not received prior systemic therapy.
The primary efficacy objective for this study is to evaluate the efficacy of atezolizumab plus platinum-based chemotherapy compared with placebo plus platinum-based chemotherapy on the basis of the following endpoints: • Co-primary endpoints of progression-free survival (PFS) and overall survival (OS) • PFS is defined as the time from randomization to the first documented disease progression as determined by the investigator with use of RECIST v1.1, or death due to any cause, whichever occurs first. • OS is defined as the time from randomization to death due to any cause. […]
Randomization was stratified by the following factors: • PD-L1 status (IC0 (<1%) vs. IC1 (≥1% and <5%) vs. IC2/3 (≥5%)). • Bajorin model risk factor score/liver metastasis (0 vs. 1 vs. 2 or patients with liver metastasis). • Investigator-determined chemotherapy (gemcitabine and carboplatin vs. gemcitabine and cisplatin). […]

[3] = patients receiving atezolizumab monotherapy, biomarker-evaluable population, Jun. 14, 2020 cutoff
[4] = untreated locally advanced or metastatic UC

“atezolizumab: Fc-engineered, humanized, non-glycosylated IgG1 kappa immunoglobulin that binds PD-L1; heavy chain SEQ ID NO: 1, light chain SEQ ID NO: 2” was tested, and the “OS HR by 22C3 CPS scoring (CPS ≥10 versus CPS <10)” value [1, 3] was 0.83 (0.63, 1.10), the “OS HR by SP142 scoring (IC2/3 versus IC0/1)” value [1, 3] was 0.55 (0.39, 0.77) and the “OS in SP142 IC2/3 versus IC0/1 tumours” value ([1]; patients with mUC) was “longer OS”. For the same substance, the “OS by combined tumor status SP142 IC0/1 + 22C3 CPS ≥10” value [1, 4] was “shorter OS”, the “OS by combined tumor status SP142 IC2/3 + 22C3 CPS ≥10 (double positive)” value [1, 4] was “longer OS” and the “overall survival (OS) HR, atezolizumab monotherapy (Arm B) versus placebo+platinum-based chemotherapy (Arm C)” value ([2]; PD-L1 IC2/3 by SP142 IHC assay) was 0.68. For the same substance, the “overall survival (OS) HR, atezolizumab monotherapy (Arm B) versus placebo+platinum-based chemotherapy (Arm C)” value ([2]; PD-L1 IC2/3 cisplatin ineligible) was 0.53.
